In the assay the target is T1, soluble guanylate cyclase (sGC) (Homo sapiens, UniProt Q02108+Q02153).
T1 construct: endogenously expressing soluble guanylate cyclase (sGC); endogenous in cells; host or cells: HEK293
T1 sequence (Q02153 1-619): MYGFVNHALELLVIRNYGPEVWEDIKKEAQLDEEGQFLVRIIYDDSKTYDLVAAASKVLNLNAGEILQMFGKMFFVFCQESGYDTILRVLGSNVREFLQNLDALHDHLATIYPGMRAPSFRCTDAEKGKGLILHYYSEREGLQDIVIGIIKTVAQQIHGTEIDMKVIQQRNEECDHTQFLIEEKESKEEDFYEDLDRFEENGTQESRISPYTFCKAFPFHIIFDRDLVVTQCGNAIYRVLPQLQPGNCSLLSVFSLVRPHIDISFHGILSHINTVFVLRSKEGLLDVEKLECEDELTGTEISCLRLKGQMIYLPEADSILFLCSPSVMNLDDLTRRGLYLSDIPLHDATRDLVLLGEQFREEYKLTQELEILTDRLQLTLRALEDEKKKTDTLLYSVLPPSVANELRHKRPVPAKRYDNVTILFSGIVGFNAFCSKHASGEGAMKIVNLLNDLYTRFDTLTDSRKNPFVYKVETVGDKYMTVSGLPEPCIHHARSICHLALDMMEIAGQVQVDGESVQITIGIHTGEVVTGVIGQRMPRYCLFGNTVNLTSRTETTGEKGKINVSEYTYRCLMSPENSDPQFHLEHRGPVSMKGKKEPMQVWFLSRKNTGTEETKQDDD
T1 sequence (Q02108 1-690): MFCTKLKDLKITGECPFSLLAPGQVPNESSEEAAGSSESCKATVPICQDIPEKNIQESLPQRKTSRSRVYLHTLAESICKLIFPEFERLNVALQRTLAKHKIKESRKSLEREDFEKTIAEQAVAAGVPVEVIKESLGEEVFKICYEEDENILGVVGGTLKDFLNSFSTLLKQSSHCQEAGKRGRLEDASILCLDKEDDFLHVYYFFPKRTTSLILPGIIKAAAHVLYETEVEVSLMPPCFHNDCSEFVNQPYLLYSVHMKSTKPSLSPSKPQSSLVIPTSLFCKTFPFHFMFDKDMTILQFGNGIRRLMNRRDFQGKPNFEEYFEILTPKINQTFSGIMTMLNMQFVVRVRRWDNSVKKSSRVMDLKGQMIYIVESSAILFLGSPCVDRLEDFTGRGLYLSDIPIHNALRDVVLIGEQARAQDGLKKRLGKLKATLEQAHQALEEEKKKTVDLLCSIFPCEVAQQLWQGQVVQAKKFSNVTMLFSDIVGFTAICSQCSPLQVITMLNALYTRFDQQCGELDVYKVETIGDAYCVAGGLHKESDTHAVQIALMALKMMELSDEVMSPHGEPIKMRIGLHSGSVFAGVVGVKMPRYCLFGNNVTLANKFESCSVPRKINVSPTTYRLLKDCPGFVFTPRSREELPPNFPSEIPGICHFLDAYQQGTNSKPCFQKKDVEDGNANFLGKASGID
The experiment in a line: sGC-HEK-cGMP assay (run with SNP incubation). Type of assay: cell-based. The note with it: for Emax: 10 μM SNP, 100% = 30 μM BAY 41-2272 with 10 μM SNP, read-out: HEK assay Emax-unconstrained (Percent); for HEK MEC-10: concentration that would elicit 10% of the Emax in the presence of 10 μM SNP; for EC50: in the presence of 10 μM SNP. The protocol: Biological Activity Measurement by the sGC-HEK-cGMP Assay
(Assay Run with SNP Incubation)
Human embryonic kidney cells (HEK293), endogenously expressing soluble guanylate cyclase (sGC), were used to evaluate the activity of test compounds. Compounds stimulating the sGC receptor should cause an increase in the intracellular concentration of cGMP. HEK 293 cells were seeded in Dulbecco's Modification of Eagle's Medium supplemented with fetal bovine serum (10% final) and L-glutamine (2 mM final) in a 2004 volume at a density of 1×10^5 cells/well in a poly-D-lysine coated 96 well flat bottom plate and grown overnight at 37° C. Medium was aspirated and cells were washed with 1× Hank's Buffered Saline Salt Solution (2004). Cells were then incubated for 15 minutes at 37° C. with 0.5 mM 3-isobutyl-1-methylxanthine (2004). Test article and sodium nitroprusside were then added to the assay mixture (24 each) and incubated at 37° C. for 10 minutes. After the 10 minute incubation, the assay mixture was aspirated and 0.1M HCl (2004) was added to the cells. The plate was incubated at 4° C. for 30 minutes in the 0.1M HCl to stop the reaction and lysed the cells. The plates were then centrifuged at 1,200 g for 5 minutes at room temperature. Supernatants were collected and transferred to a new flat bottom 96 well plate for analysis. Vehicle controls were carried out using DMSO (1%). A known sGC stimulator, BAY 41-2272, was used as the positive control. Samples were diluted with an equal volume of 1 M Ammonium Acetate (pH 7) to neutralize samples for better chromatography. A 2×cGMP standard curve was prepared in 0.1 M HCl and then diluted with an equal volume of 1 M Ammonium Acetate, with the following final concentrations in nM: 1024, 512, 256, 128, 64, 32, 16, 8, 4, 2, 1.cGMP concentrations were determined from each sample using the LC/MS conditions (Table 2 below) and calculated standard curve. EC50 values were calculated from concentration-response curves generated with GraphPad Prism Software.

The mark [1] stands for this setting: Table 3A, top of concentration-response curve not fitted to 100%.
Where [2] appears, read: Table 3D, read-out: HEK assay EC50.
Setting [3] is: top of concentration-response curve not fitted to 100%, Table 3D, read-out: HEK assay EC50-unconstrained.
The mark [4] stands for this setting: Table 3C, top of concentration-response curve not fitted to 100%.
Where [5] appears, read: Table 3F, read-out: HEK assay EC50.
[6] abbreviates: top of concentration-response curve not fitted to 100%, Table 3F, read-out: HEK assay EC50-unconstrained.

Read-outs that look alike come from different tables or passages of the source. Bounds are passed on as bounds.

What is called Emax is the size of the effect at its maximum, as opposed to the concentration needed. For orientation: EC50 means the midpoint of the concentration-response curve. In the case of `O=c1[nH]c(-c2cc(-c3ccon3)n(Cc3c(F)ccc(F)c3F)n2)ncc1F` [Compound 19, 5-fluoro-2-(5-(isoxazol-3-yl)-1-(2,3,6-trifluorobenzyl)-1H-pyrazol-3-yl)pyrimidin-4-ol], the Emax under setting [1] lay within 20 to 40%. In addition, the “HEK MEC-10” value (Table 3D) is “D (1 to <10 μM)”. Also, the EC50 fell in the range of 40 to 60 µM under setting [2] and 0.5 to 1 µM under setting [3].

Consider `CC1(C(=O)Oc2cnc(-c3cc(-c4ccon4)n(Cc4ccccc4F)n3)nc2N)CC1` [Compound 5], for which the Emax under setting [1] was 80 to 100%. In addition, the “HEK MEC-10” value (Table 3D) was “C (0.1 to <1 μM)”. For the same molecule, the EC50 by setting is: under setting [2], below 20 µM; under setting [3], 10 to 50 µM.

Take `Nc1nc(-c2cc(-c3ccon3)n(Cc3cccc(F)c3F)n2)ncc1NC(=O)c1ccc[nH]1` [Compound 103]: under setting [4], the maximum response (Emax) was in the range of 80 to 100%. Besides, under “Table 3F”, the “HEK MEC-10” value is listed as “A (0.001 to <0.01 μM)”. Besides, the EC50 under setting [5] is below 20 µM and the EC50 under setting [6] is 0.01 to 0.5 µM.

As to `O=c1[nH]c(-c2nn(Cc3ccccc3F)c(-c3ccon3)c2F)ncc1F` [Compound 3], the maximum response (Emax) under setting [1] is at least 120%. Besides, for the setting “Table 3D”, the “HEK MEC-10” value is “D (1 to <10 μM)”. Further, the EC50 reads like this: under setting [2], below 20 µM; under setting [3], 10 to 50 µM.

Consider `CN(C1CC1)S(=O)(=O)c1cnc(-c2cc(-c3ccon3)n(Cc3ccccc3F)n2)[nH]c1=O` [Compound 14], for which the Emax under setting [1] lay in the range of 40 to 60%. Besides, the “HEK MEC-10” value (Table 3D) was “B (0.01 to <0.1 μM)”. The EC50 was below 20 µM under setting [2] and 0.01 to 0.5 µM under setting [3].

`Fc1ccccc1Cn1nc(-c2ncc(F)c(Cl)n2)cc1-c1ccon1` [Compound 30, 3-(3-(4-chloro-5-fluoropyrimidin-2-yl)-1-(2-fluorobenzyl)-1H-pyrazol-5-yl)isoxazole]: the maximal effect (Emax) under setting [1] lay in the range of 60 to 80%. For the same molecule, under “Table 3D”, the “HEK MEC-10” value was “D (1 to <10 μM)”. Also, the EC50 under setting [2] was below 20 µM and the concentration giving a half-maximal response (EC50) under setting [3] lay in the range of 1 to 5 µM.

As for `Nc1nc(-c2cc(-c3ccon3)n(Cc3ccccc3F)n2)ncc1NC(=O)C1(c2cccc(F)c2)CC1` [Compound 11], the Emax under setting [1] lay within 60 to 80%. Further, for the setting “Table 3D”, the “HEK MEC-10” value was “B (0.01 to <0.1 μM)”. For the same molecule, the concentration giving a half-maximal response (EC50) under setting [2] was below 20 µM and the 50% effective concentration (EC50) under setting [3] fell in the range of 0.01 to 0.5 µM.

`Nc1ccnc(-c2cc(-c3ccon3)n(Cc3cccc(F)c3F)n2)n1` [Compound 37]: the Emax under setting [1] was 80 to 100%. In addition, the “HEK MEC-10” value (Table 3D) is given as “C (0.1 to <1 μM)”. The EC50 under setting [2] lay within 20 to 40 µM and the half-maximal effective concentration (EC50) under setting [3] was in the range of 10 to 50 µM.

Regarding `Oc1nc(-c2cc(-c3cocn3)n(Cc3ccccc3F)n2)ncc1F` [Compound 48], the Emax under setting [1] was 60 to 80%. For the same molecule, where the note is “Table 3D”, the “HEK MEC-10” value is on record as “C (0.1 to <1 μM)”. Moreover, the EC50 runs as follows: under setting [2], below 20 µM; under setting [3], 1 to 5 µM.

Take `CN(C)Cc1ccc(C(=O)Nc2cnc(-c3cc(-c4ccon4)n(Cc4cccc(F)c4F)n3)nc2N)cc1` [Compound 102]: the Emax under setting [4] fell in the range of 60 to 80%. Further, the “HEK MEC-10” value (Table 3F) is “C (0.1 to <1 μM)”. For the same molecule, the half-maximal effective concentration (EC50) is below 20 µM under setting [5] and 1 to 5 µM under setting [6].

With `COc1nc(-c2cc(-c3ccon3)n(Cc3ccccc3F)n2)nc(Cl)c1F` [Compound 116], the Emax under setting [4] is 20 to 40%. In addition, the “HEK MEC-10” value (Table 3F) is “D (1 to <10 μM)”. Besides, the EC50 under setting [5] fell in the range of 60 to 100 µM.

In the case of `Oc1nc(-c2cc(-c3ccco3)n(Cc3ccccc3F)n2)ncc1F` [Compound 90], the maximal effect (Emax) (Table 3B, top of concentration-response curve not fitted to 100%) lay in the range of 40 to 60%. Further, the half-maximal effective concentration (EC50) (top of concentration-response curve not fitted to 100%, Table 3E, read-out: HEK assay EC50-unconstrained) fell in the range of 0.01 to 0.5 µM.

As to `Nc1nc(-c2cc(-c3ccon3)n(Cc3ccccc3F)n2)ncc1NC(=O)C(Cl)(Cl)Cl` [Compound 98], the maximal effect (Emax) under setting [4] was 60 to 80%. In addition, the “HEK MEC-10” value (Table 3F) was “B (0.01 to <0.1 μM)”. For the same molecule, the EC50 was below 20 µM under setting [5] and 0.01 to 0.5 µM under setting [6].

`Nc1nc(-c2cc(-c3ccon3)n(Cc3cccc(F)c3F)n2)ncc1NC(=O)c1ccn[nH]1` [Compound 106]: the maximal effect (Emax) under setting [4] lay within 80 to 100%. For the same molecule, under “Table 3F”, the “HEK MEC-10” value is on record as “D (1 to <10 μM)”. The EC50 was below 20 µM under setting [5] and 5 to 10 µM under setting [6].

Turning to `Oc1nc(-c2cc(-c3ccon3)n(Cc3ccccc3F)n2)ncc1Sc1ccccn1` [Compound 18, 2-(1-(2-fluorobenzyl)-5-(isoxazol-3-yl)-1H-pyrazol-3-yl)-5-(pyridin-2-ylthio)pyrimidin-4-ol], the maximum response (Emax) under setting [1] fell in the range of 60 to 80%. Besides, the “HEK MEC-10” value (Table 3D) is on record as “C (0.1 to <1 μM)”. Moreover, the EC50 lay within 20 to 40 µM under setting [2] and 10 to 50 µM under setting [3].

`N#Cc1nc(-c2cc(-c3ccon3)n(Cc3ccccc3F)n2)ncc1F` [Compound 115]: the Emax under setting [4] was 20 to 40%. For the same molecule, the “HEK MEC-10” value (Table 3F) was “D (1 to <10 μM)”. For the same molecule, the 50% effective concentration (EC50) is, setting by setting: under setting [5], 40 to 60 µM; under setting [6], 1 to 5 µM.

As to `Oc1nc(-c2cc(-c3ccon3)n(Cc3ccccc3F)n2)ncc1Sc1ccc(F)cc1` [Compound 4, 2-(1-(2-fluorobenzyl)-5-(isoxazol-3-yl)-1H-pyrazol-3-yl)-5-(4-fluorophenylthio)pyrimidin-4-ol], the maximal effect (Emax) under setting [1] was 60 to 80%. Besides, the “HEK MEC-10” value (Table 3D) is “C (0.1 to <1 μM)”. Moreover, the 50% effective concentration (EC50) is below 20 µM under setting [2] and 1 to 5 µM under setting [3].

As for `O=c1[nH]c(-c2cc(-c3ccon3)n(Cc3ccccc3F)n2)ncc1S(=O)(=O)N1CCCC1` [Compound 21], the Emax under setting [1] lay in the range of 60 to 80%. Also, the “HEK MEC-10” value (Table 3D) was “C (0.1 to <1 μM)”. In addition, the concentration giving a half-maximal response (EC50) was below 20 µM under setting [2] and 0.5 to 1 µM under setting [3].

With `N#CC1(C(=O)Nc2cnc(-c3cc(-c4ccon4)n(Cc4cccc(F)c4F)n3)nc2N)CC1` [Compound 36], the Emax under setting [1] was 40 to 60%. Further, the “HEK MEC-10” value (Table 3D) was “D (1 to <10 μM)”. Besides, the concentration giving a half-maximal response (EC50) by setting is: under setting [2], below 20 µM; under setting [3], 0.01 to 0.5 µM.

Regarding `Nc1nc(-c2cc(-c3ccon3)n(Cc3cccc(F)c3F)n2)ncc1NC(=O)c1ccc(C(F)(F)F)cc1` [Compound 101], under setting [4], the Emax fell in the range of 80 to 100%. Besides, the “HEK MEC-10” value (Table 3F) is given as “A (0.001 to <0.01 μM)”. For the same molecule, the concentration giving a half-maximal response (EC50) by setting is: under setting [5], below 20 µM; under setting [6], 0.01 to 0.5 µM.

Values taken from patent US20150342954A1, “2-BENZYL, 3-(PYRIMIDIN-2-YL) SUBSTITUTED PYRAZOLES USEFUL AS SGC STIMULATORS” (IRONWOOD PHARMACEUTICALS, INC., priority 2011, published 2015).
